Experiments:
senescent IMR90 cells = assay: Ki67 immunofluorescence of DNA damage-induced senescent IMR90 cells; type: cell-based, human; conditions: UPCP
Method: Fibroblasts from patients with HGPS were obtained from The Progeria Research Foundation Cell and Tissue Bank (http://www.progeriaresearch.org). The following fibroblasts were used: HGADFN003, HGADFN167, HGMDFN090 and HGFDFN168. Human dermal fibroblasts (GM00038 and AG09602) were obtained from Coriell Cell Repository (https://catalog.coriell.org). These cells were characterized by DNA fingerprinting and isozyme detection and were tested by a MycoBlue Mycoplasma Detector (Vazyme Biotech) to exclude mycoplasma contamination before the experiments. […] HGADFN003, HGADFN167, HGMDFN090, HGFDFN168, GM00038 and AG09602 were cultured in DMEM medium with 15% (v/v) fetal bovine serum (VivaCell). All cell lines were grown at 37 °C with 5% CO2 and IMR90, CRL-1474, HGADFN003, HGADFN167, HGMDFN090, HGFDFN168, GM00038 and AG09602 were cultured with 5% O2. For bleomycin-induced senescence, IMR90 cells were incubated with the culture medium containing 20 μg ml^–1 Bleomycin (Selleck, catalog no. S1214) for 2 h and analyzed 10 days later, or as otherwise indicated. For doxorubicin-induced senescence, IMR90 cells were treated twice with 100 nM Doxorubicin (Selleck, catalog no. S1208) with a 2 day interval and analyzed 10 days later, or as otherwise indicated. For ionizing radiation (IR)-induced senescence, IMR90 cells were exposed to 10 Gy Gamma rays, and analyzed 10 days later, or as otherwise indicated, the control IMR90 cells were mock irradiated. For etoposide-induced senescence, IMR90 cells incubated with the culture medium containing 10 μM Etoposide (Sigma, catalog no. E1383) for 48 h and analyzed 10 days later, or as otherwise indicated.
Immunofluorescence was performed as described previously. Cells were plated on cover slips in 12-well plates, left overnight before the treatment. Cells were fixed in 1% formaldehyde in culture medium for 10 min at 37 °C and permeabilized with 0.2% Triton X-100 in PBS for 10 min at room temperature. Cells were washed twice in PBS and blocked for 1 h with 5% BSA in PBS and then incubated with primary antibodies at 4 °C overnight, washed three times in PBS and incubated with secondary antibodies for 1 h at room temperature. Cell nuclei were counterstained with a 500 nM concentration of 4,6-diamidino-2-phenylindole (DAPI) (Sigma). Images were acquired by a fluorescence microscope (OLYMPUS FV-1000, Carl Zeiss LSM880 or Leica DMi8) and analyzed with software NIS-Elements AR v.5.0.1 (Nikon), FLUOVIEW v.4.2b (OLYMPUS), ZEN v.2.3 SP1 (Carl Zeiss) and Leica Application Suite X v.3.6.0.24 (Leica). Cells were quantified by investigators who were blinded to the identity of the analyzed cell.

Lmna^G609G/G609G mice = assay: Bodyweight of Lmna^G609G/G609G mice; type: in vivo, mouse; conditions: 20 mg kg^–1 i.p. every other day from 14 days of age
Source text: All animal experiments were approved by the Ethics Committee of School of Life Sciences, Northeast Normal University, China (AP20191011) and carried out in accordance with the relevant guidelines: National Standards of the People’s Republic of China (GB/T 35892–2018), Laboratory Animal—Guideline for Ethical Review of Animal Welfare. We generated a mouse model (ICR background), carrying the Lmna^G609G using the BE4-Gam system. The protocols for the BE4-Gam system and microinjection of pronuclear-stage embryos have been described in detail previously[37],[38],[59]. Briefly, a mixture of BE4-Gam mRNA (200 ng μl^–1) and sgRNA-Lmna (30 ng μl^–1) was coinjected into the cytoplasm of pronuclear-stage embryos of the mouse. The injected embryos were transferred to embryo culture medium for 30–60 min, followed by transferring the injected embryos into the recipient mother. The embryos continued to develop and the founder mice (referred to as F0) were born: wild-type mice (Lmna^+/+), heterozygous mice (Lmna^G609G/+) and homozygous mice (Lmna^G609G/G609G). […]
For UPCP injection, 14-day-old Lmna^G609G/G609G mice were injected intraperitoneally with either PBS or UPCP (20 mg kg^–1, every other day) and wild-type mice were injected with PBS. […] Bodyweight and lifespan were monitored after UPCP treatment. The survival rate was analyzed by the Kaplan–Meier method. […]

## H-YGRKKRRQRRRYNLRSRTVLCGTCGQPADKASASGSGAQSPQNCSIM-OH (cysteines drawn unpaired) [UPCP, unique progerin C-terminal peptide]
Senescent IMR90 cells; BLM (bleomycin 20 μg/mL 2 h), replicate 1
  Ki67 positive cells: 14.5%
Senescent IMR90 cells; BLM (bleomycin 20 μg/mL 2 h), replicate 2
  Ki67 positive cells: 18.5%
Senescent IMR90 cells; BLM (bleomycin 20 μg/mL 2 h), replicate 3
  Ki67 positive cells: 21.5%
Senescent IMR90 cells; Dox (doxorubicin 100 nM twice), replicate 1
  Ki67 positive cells: 14%
Senescent IMR90 cells; Dox (doxorubicin 100 nM twice), replicate 2
  Ki67 positive cells: 22%
Senescent IMR90 cells; Dox (doxorubicin 100 nM twice), replicate 3
  Ki67 positive cells: 19%
Senescent IMR90 cells; Eto (etoposide 10 μM 48 h), replicate 1
  Ki67 positive cells: 18.5%
Senescent IMR90 cells; Eto (etoposide 10 μM 48 h), replicate 2
  Ki67 positive cells: 20%
Senescent IMR90 cells; Eto (etoposide 10 μM 48 h), replicate 3
  Ki67 positive cells: 14.5%
Senescent IMR90 cells; IR (10 Gy), replicate 1
  Ki67 positive cells: 19%
Senescent IMR90 cells; IR (10 Gy), replicate 2
  Ki67 positive cells: 15.5%
Senescent IMR90 cells; IR (10 Gy), replicate 3
  Ki67 positive cells: 17%
Lmna^G609G/G609G mice; female
  bodyweight, female: slow down the bodyweight loss
Lmna^G609G/G609G mice; male
  bodyweight, male: increase the bodyweight
